Measurements from patent US5843900A (priority 1995, dated 1998).
Square brackets hold non-standard residues; d marks the D form. Peptide text beside a SMILES is read from it. * marks the point of attachment. X21 = CN1CC[C@]23c4c5ccc(OCCCCCCCCCCCC(=O)*)c4O[C@H]2[C@@H](O)CC[C@H]3[C@H]1C5; Hyp = O=C(O)[C@@H]1C[C@@H](O)CN1; dTic = O=C(O)[C@H]1Cc2ccccc2CN1; 2Thi = N[C@@H](Cc1cccs1)C(=O)O; Gly(N-cHex) = O=C(O)CNC1CCCCC1

Assays:
human BK2 receptor = human BK2 receptor (Homo sapiens, UniProt P30411); experiment: biochemical; assay type: binding
Chain of human BK2 receptor (P30411 28-391): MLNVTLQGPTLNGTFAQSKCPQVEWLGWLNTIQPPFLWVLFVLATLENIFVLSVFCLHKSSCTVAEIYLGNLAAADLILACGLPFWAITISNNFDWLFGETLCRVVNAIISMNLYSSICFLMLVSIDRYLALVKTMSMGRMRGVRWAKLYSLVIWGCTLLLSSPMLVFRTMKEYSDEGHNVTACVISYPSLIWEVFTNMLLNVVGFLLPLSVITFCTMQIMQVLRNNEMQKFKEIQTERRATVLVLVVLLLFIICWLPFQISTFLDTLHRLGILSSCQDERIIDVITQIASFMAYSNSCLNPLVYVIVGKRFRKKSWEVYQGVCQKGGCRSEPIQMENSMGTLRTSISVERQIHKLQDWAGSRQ

[1] = test system: mustard oil induced neurogenic inflammation in the rat hind paw; conditions: in vivo
[2] = test system: hypotensive response to bradykinin; experiment: Rat Blood Pressure: hypotensive response to bradykinin; assay type: in vivo; conditions: at the dose used in the carrageenan test
Protocol: Male rats were anesthetised with urethane, 1.25 g/kg, and cannulae were placed in the carotid artery and femoral vein for the injection and infusion of compounds and in the femoral artery for the recording of blood pressure. Standard hypotensive responses were obtained to repeated administration of bradykinin, 80 pM. These were repeated in the presence of increasing dose infusions of CP-0840. […] The selectivity of CP-0840 was assessed at a dose of 3 ug/kg/min. […] CP-0840 can be said to be a selective antagonist of bradykinin in vivo in the rat blood pressure assay (FIG. 9).

[3] = test system: paw licking following formalin injection; conditions: mouse, in vivo
[4] = test system: carrageenan induced edema in the rat hind paw; conditions: in vivo

Molecule | IC50 (human BK2 receptor) [nM] | also measured
CN1CC[C@]23c4c5ccc(OCCCCCCCCCCCC(=O)N[C@H](CCCNC(=N)N)C(=O)N[C@@H](CCCNC(=N)N)C(=O)N6CCC[C@H]6C(=O)N6C[C@H](O)C[C@H]6C(=O)NCC(=O)N[C@@H](Cc6cccs6)C(=O)N[C@@H](CO)C(=O)N6Cc7ccccc7C[C@@H]6C(=O)N(CC(=O)N[C@@H](CCCNC(=N)N)C(=O)O)C6CCCCC6)c4O[C@H]2[C@@H](O)CC[C@H]3[C@H]1C5 [CP 695] | 1.26 | 
CN1CC[C@]23c4c5ccc(OCCCCCCCCCCCC(=O)NCCCC[C@H](NC(=O)[C@H](N)CCCNC(=N)N)C(=O)N6CCC[C@H]6C(=O)N6C[C@H](O)C[C@H]6C(=O)NCC(=O)N[C@@H](Cc6cccs6)C(=O)N[C@@H](CO)C(=O)N6Cc7ccccc7C[C@@H]6C(=O)N(CC(=O)N[C@@H](CCCNC(=N)N)C(=O)O)C6CCCCC6)c4O[C@H]2[C@@H](O)CC[C@H]3[C@H]1C5 [CP 723] (H-[dR]K(X21)P[Hyp]G[2Thi]S[dTic][Gly(N-cHex)]R-OH) | 0.398 | 
CN1CC[C@]23c4c5ccc(OCCCCCCCCCCCC(=O)NCCCC[C@H](NC(=O)CNC(=O)[C@@H]6C[C@@H](O)CN6C(=O)[C@@H]6CCCN6C(=O)[C@H](CCCNC(=N)N)NC(=O)[C@H](N)CCCNC(=N)N)C(=O)N[C@@H](CO)C(=O)N6Cc7ccccc7C[C@@H]6C(=O)N(CC(=O)N[C@@H](CCCNC(=N)N)C(=O)O)C6CCCCC6)c4O[C@H]2[C@@H](O)CC[C@H]3[C@H]1C5 [CP 831] (H-[dR]RP[Hyp]GK(X21)S[dTic][Gly(N-cHex)]R-OH) | 126 | 
CN1CC[C@]23c4c5ccc(OCc6ccc(C(=O)NCCC(=O)Nc7ccc(CC(=O)N[C@H](CCCNC(=N)N)C(=O)N[C@@H](CCCNC(=N)N)C(=O)N8CCC[C@H]8C(=O)N8C[C@H](O)C[C@H]8C(=O)NCC(=O)N[C@@H](Cc8cccs8)C(=O)N[C@@H](CO)C(=O)N8Cc9ccccc9C[C@@H]8C(=O)N(CC(=O)N[C@@H](CCCNC(=N)N)C(=O)O)C8CCCCC8)cc7)cc6)c4O[C@H]2[C@@H](O)C=C[C@H]3[C@H]1C5 [CP 836] | 1.26 | 
CN1CC[C@]23c4c5ccc(OCCCCCCCCCCCC(=O)NCCCC[C@H](NC(=O)[C@@H]6CCCN6C(=O)[C@H](CCCNC(=N)N)NC(=O)[C@H](N)CCCNC(=N)N)C(=O)NCC(=O)N[C@@H](Cc6cccs6)C(=O)N[C@@H](CO)C(=O)N6Cc7ccccc7C[C@@H]6C(=O)N(CC(=O)N[C@@H](CCCNC(=N)N)C(=O)O)C6CCCCC6)c4O[C@H]2[C@@H](O)CC[C@H]3[C@H]1C5 [CP 841] (H-[dR]RPK(X21)G[2Thi]S[dTic][Gly(N-cHex)]R-OH) | 12.6 | 
CN1CC[C@]23c4c5ccc(OCCCCCCCCCCCCCCC(=O)N[C@H](CCCNC(=N)N)C(=O)N[C@@H](CCCNC(=N)N)C(=O)N6CCC[C@H]6C(=O)N6C[C@H](O)C[C@H]6C(=O)NCC(=O)N[C@@H](Cc6cccs6)C(=O)N[C@@H](CO)C(=O)N6Cc7ccccc7C[C@@H]6C(=O)N(CC(=O)N[C@@H](CCCNC(=N)N)C(=O)O)C6CCCCC6)c4O[C@H]2[C@@H](O)CC[C@H]3[C@H]1C5 [CP 844] | 3.16 | 
CN1CC[C@]23c4c5ccc(OCCCCCCCCCCCC(=O)NCCCC[C@H](NC(=O)[C@H](CCCNC(=N)N)NC(=O)[C@H](N)CCCNC(=N)N)C(=O)N6C[C@H](O)C[C@H]6C(=O)NCC(=O)N[C@@H](Cc6cccs6)C(=O)N[C@@H](CO)C(=O)N6Cc7ccccc7C[C@@H]6C(=O)N(CC(=O)N[C@@H](CCCNC(=N)N)C(=O)O)C6CCCCC6)c4O[C@H]2[C@@H](O)CC[C@H]3[C@H]1C5 [CP 851] (H-[dR]RK(X21)[Hyp]G[2Thi]S[dTic][Gly(N-cHex)]R-OH) | 39.8 | 
CN1CC[C@]23c4c5ccc(OCCCCCCCCCCCC(=O)NCCCC[C@H](NC(=O)[C@@H]6C[C@@H](O)CN6C(=O)[C@@H]6CCCN6C(=O)[C@H](CCCNC(=N)N)NC(=O)[C@H](N)CCCNC(=N)N)C(=O)N[C@@H](Cc6cccs6)C(=O)N[C@@H](CO)C(=O)N6Cc7ccccc7C[C@@H]6C(=O)N(CC(=O)N[C@@H](CCCNC(=N)N)C(=O)O)C6CCCCC6)c4O[C@H]2[C@@H](O)CC[C@H]3[C@H]1C5 [CP 853] (H-[dR]RP[Hyp]K(X21)[2Thi]S[dTic][Gly(N-cHex)]R-OH) | 63.1 | 
CN1CC[C@]23c4c5ccc(OCc6cccc(C(=O)NCCC(=O)Nc7ccc(CC(=O)N[C@H](CCCNC(=N)N)C(=O)N[C@@H](CCCNC(=N)N)C(=O)N8CCC[C@H]8C(=O)N8C[C@H](O)C[C@H]8C(=O)NCC(=O)N[C@@H](Cc8cccs8)C(=O)N[C@@H](CO)C(=O)N8Cc9ccccc9C[C@@H]8C(=O)N(CC(=O)N[C@@H](CCCNC(=N)N)C(=O)O)C8CCCCC8)cc7)c6)c4O[C@H]2[C@@H](O)C=C[C@H]3[C@H]1C5 [CP 862] | 1 | 
CN1CC[C@]23c4c5ccc(O)c4O[C@H]2[C@@H](OCCCCCCCCCCCC(=O)N[C@H](CCCNC(=N)N)C(=O)N[C@@H](CCCNC(=N)N)C(=O)N2CCC[C@H]2C(=O)N2C[C@H](O)C[C@H]2C(=O)NCC(=O)N[C@@H](Cc2cccs2)C(=O)N[C@@H](CO)C(=O)N2Cc4ccccc4C[C@@H]2C(=O)N(CC(=O)N[C@@H](CCCNC(=N)N)C(=O)O)C2CCCCC2)CC[C@H]3[C@H]1C5 [CP 896] | 2 | 
CN1CC[C@]23c4c5ccc(O)c4O[C@H]2[C@@H](OCCCCCC(=O)N[C@H](CCCNC(=N)N)C(=O)N[C@@H](CCCNC(=N)N)C(=O)N2CCC[C@H]2C(=O)N2C[C@H](O)C[C@H]2C(=O)NCC(=O)N[C@@H](Cc2cccs2)C(=O)N[C@@H](CO)C(=O)N2Cc4ccccc4C[C@@H]2C(=O)N(CC(=O)N[C@@H](CCCNC(=N)N)C(=O)O)C2CCCCC2)CC[C@H]3[C@H]1C5 [CP 900] | 1.58 | 
CN1CC[C@]23c4c5ccc(O)c4O[C@H]2[C@@H](OCCCc2cccc(C(=O)N[C@H](CCCNC(=N)N)C(=O)N[C@@H](CCCNC(=N)N)C(=O)N4CCC[C@H]4C(=O)N4C[C@H](O)C[C@H]4C(=O)NCC(=O)N[C@@H](Cc4cccs4)C(=O)N[C@@H](CO)C(=O)N4Cc6ccccc6C[C@@H]4C(=O)N(CC(=O)N[C@@H](CCCNC(=N)N)C(=O)O)C4CCCCC4)c2)C=C[C@H]3[C@H]1C5 [CP 902] | 0.398 | 
CN1CC[C@]23c4c5ccc(O)c4O[C@H]2[C@@H](OCCCc2ccc(C(=O)N[C@H](CCCNC(=N)N)C(=O)N[C@@H](CCCNC(=N)N)C(=O)N4CCC[C@H]4C(=O)N4C[C@H](O)C[C@H]4C(=O)NCC(=O)N[C@@H](Cc4cccs4)C(=O)N[C@@H](CO)C(=O)N4Cc6ccccc6C[C@@H]4C(=O)N(CC(=O)N[C@@H](CCCNC(=N)N)C(=O)O)C4CCCCC4)cc2)C=C[C@H]3[C@H]1C5 [CP 905] | 0.501 | 
CN1CC[C@]23c4c5ccc(O)c4O[C@H]2[C@@H](OCc2ccc(C(=O)N[C@H](CCCNC(=N)N)C(=O)N[C@@H](CCCNC(=N)N)C(=O)N4CCC[C@H]4C(=O)N4C[C@H](O)C[C@H]4C(=O)NCC(=O)N[C@@H](Cc4cccs4)C(=O)N[C@@H](CO)C(=O)N4Cc6ccccc6C[C@@H]4C(=O)N(CC(=O)N[C@@H](CCCNC(=N)N)C(=O)O)C4CCCCC4)cc2)C=C[C@H]3[C@H]1C5 [CP 906] | 0.501 | 
D-Arg-Arg-Pro-Hyp-Gly-Thi-Ser-D-Tic-NChg-Arg [CP-0597] |  | effect on mustard oil edema response (Evan's blue dye) [1]: without effect; duration of action against blood pressure responses to bradykinin [2]: greater than 6 h; effect on first and second phase responses (paw licking time) [3]: no significant effect; Percentage inhibition of the carrageenan paw edema, 3 h [4]: 66.3; Percentage inhibition of the carrageenan paw edema, 6 h [4]: 0; effect on carrageenan edema response ([4]; sc): significant inhibition from 0-3 h
